The record followed here is US20020065227A1, “Charged compounds comprising a nucleic acid binding moiety and uses therefor” (priority 2000, published 2002).

Experiment [1] deals with Candida tropicalis (13803). In words: MIC, antifungal assay. It counts as cell-based.
The test system of experiment [2] is Esherichia coli (25922). Kind of experiment: MIC, NCCLS broth microdilution. The format is cell-based, Escherichia coli. For orientation: Broth dilution looks for growth in wells or tubes with falling amounts of substance.
For experiment [3], the system named is Corynebacterium Group A (49676). In words: MIC, NCCLS broth microdilution. It counts as cell-based.
In experiment [4] the test system is Staphylococcus epidermidis (12228). Kind of experiment: MIC, NCCLS broth microdilution. It counts as cell-based.
The test system of experiment [5] is Streptococcus pneumoniae (49619). In words: MIC, NCCLS broth microdilution. The format is cell-based.
Experiment [6] relates to Bacillus subtilis (6633). Kind of experiment: MIC, NCCLS broth microdilution. It counts as cell-based.
Experiment [7] deals with Candida parapsilosis (10232). Kind of experiment: MIC, antifungal assay. The format is cell-based.
In experiment [8] the test system is Enterococcus faecalis (29212). Kind of experiment: MIC, NCCLS broth microdilution. It counts as cell-based.
Experiment [9] relates to Staphylococcus aureus (33591) (methicillin resistant). In words: MIC, NCCLS broth microdilution. It counts as cell-based.
In experiment [10] the test system is Candida albicans (90028). Kind of experiment: MIC, antifungal assay. The format is cell-based.
In experiment [11] the test system is Candida albicans (38247) (Polyene resistant). Kind of experiment: MIC, antifungal assay. It counts as cell-based.
Experiment [12] concerns Streptococcus pyogenes (49339). Kind of experiment: MIC, NCCLS broth microdilution. The format is cell-based.
Experiment [13] concerns Staphylococcus aureus (29213). Kind of experiment: MIC, NCCLS broth microdilution. The format is cell-based.
The subject of experiment [14] is Pseudomona aeruginosa (27853). In words: MIC, NCCLS broth microdilution. The format is cell-based.
For experiment [15], the system named is Peptostreptococcus asaccharolytics (29743). Kind of experiment: MIC, NCCLS broth microdilution. It counts as cell-based. Particulars: anaerobe.
Experiment [16] relates to Propionibacterium acnes (33179). In words: MIC, NCCLS broth microdilution. The format is cell-based. Particulars: anaerobe.
The subject of experiment [17] is Cryptococcus neoformans (90112). In words: MIC, antifungal assay. It counts as cell-based.
The subject of experiment [18] is Clostridium perfringens (13124). In words: microbe, parasite or virus in culture. The format is cell-based.
The test system of experiment [19] is Micrococcus luteus (381). Kind of experiment: MIC, NCCLS broth microdilution. The format is cell-based.
The subject of experiment [20] is Bacillus cereus (11778). Kind of experiment: MIC, NCCLS broth microdilution. The format is cell-based.
In experiment [21] the test system is Enterococcus faecium (51559) (vacomycin resistant). In words: MIC, NCCLS broth microdilution. The format is cell-based.
Experiment [22] has as its system Haemophilus influenzae (49247). In words: MIC, NCCLS broth microdilution. It counts as cell-based.
Experiment [23] concerns Listeria monocytogenes (19115). Kind of experiment: MIC, NCCLS broth microdilution. The format is cell-based. The settings on record: read-out: MIC.
The test system of experiment [24] is dsDNA restriction fragment. In words: dsDNA binding, DNase I footprinting on restriction fragment. The settings on record: in words.
The test system of experiment [25] is different species of bacteria and fungi. The settings on record: in words.
Experiment [26] concerns AGTACT. Kind of experiment: DNase I footprint titration, AGTACT site. It counts as binding. Particulars: equilibrium association constant Ka; pH 7.0, 22° C.
The test system of experiment [27] is AATACT. Kind of experiment: DNase I footprint titration, AATACT site. The format is binding. Particulars: equilibrium association constant Ka; pH 7.0, 22° C.
Experiment [28] has as its system ACTACT. Kind of experiment: DNase I footprint titration, ACTACT site. It counts as binding. The settings on record: equilibrium association constant Ka; pH 7.0, 22° C.
For experiment [29], the system named is ATTACT. Kind of experiment: DNase I footprint titration, ATTACT site. The settings on record: equilibrium association constant Ka; pH 7.0, 22° C. It counts as binding.
Setting [30] is: Streptococcus pneumoniae (49619).
The mark [31] stands for this setting: Cryptococcus neoformans (90112).

In brackets after ≈: the same amount, converted by molar mass. Where two headings read alike, the source gives them in different places. Some results are limits rather than exact numbers.

As to `Cn1cc(NC(=O)c2cc(NC(=O)c3cc(NC=O)cn3C)cn2C)cc1C(=O)NCCC(=N)N` [Distamycin, distamycin, reference compound], the MIC in [1] (Candida tropicalis (13803)) is >128 µg/mL; in experiment [2] (Escherichia coli (25922)), >128 µg/mL; in experiment [3] (Corynebacterium Group A (49676)), 16 µg/mL (≈ 33.2 µM); in [4] (Staphylococcus epidermidis (12228)), 64 µg/mL (≈ 133 µM); in [5] (setting [30]), 16 µg/mL (≈ 33.2 µM); in experiment [6] (Bacillus subtilis (6633)), 64 to 128 µg/mL. The MIC is >128 µg/mL in [7] (Candida parapsilosis (10232)); 16 to 32 µg/mL in experiment [8] (Enterococcus faecalis (29212)); 16 µg/mL (≈ 33.2 µM) in experiment [9] (Staphylococcus aureus (33591), methicillin resistant (MRSA)); >128 µg/mL in [10]; >128 µg/mL in experiment [11]; 32 µg/mL (≈ 66.5 µM) in experiment [12] (Streptococcus pyogenes (49339), Table Ia: Streptococcus Group A(49339)). Further, the MIC in experiment [13] (Staphylococcus aureus (29213)) was 32 µg/mL (≈ 66.5 µM); in [14] (Pseudomona aeruginosa (27853)) it was >128 µg/mL; in experiment [15] it was 8 µg/mL (≈ 16.6 µM); in [16] it was 16 µg/mL (≈ 33.2 µM); in experiment [17] (setting [31]) it was >128 µg/mL; in [18], 8 µg/mL (≈ 16.6 µM). Further, the MIC in experiment [19] was 32 µg/mL (≈ 66.5 µM); in experiment [20] (Bacillus cereus (11778)), 8 µg/mL (≈ 16.6 µM); in [21] (Enterococcus faecium (51559), vancomycin resistant), 128 µg/mL (≈ 266 µM).
Consider `Cn1cc(NC(=O)c2cc(NC(=O)CN=C(N)N)cn2C)cc1C(=O)NCCC(=N)N` [Netropsin, netropsin, reference compound], for which the MIC in [1] (Candida tropicalis) was 16 µg/mL (≈ 37.2 µM); in experiment [2] (Escherichia coli), 2 µg/mL (≈ 4.65 µM); in [3] (Corynebacterium), 0.5 µg/mL (≈ 1.16 µM); in experiment [4] (Staphylococcus epidermidis), 2 to 4 µg/mL (≈ 4.65 to 9.29 µM); in [5] (Streptococcus pneumoniae) it was 0.125 µg/mL (≈ 0.29 µM); in experiment [6] (Bacillus subtilis), 4 µg/mL (≈ 9.29 µM). The MIC was determined as 16 µg/mL (≈ 37.2 µM) in [7] (Lodderomyces parapsilosis); 2 µg/mL (≈ 4.65 µM) in experiment [8] (Enterococcus faecalis); 4 µg/mL (≈ 9.29 µM) in experiment [9] (Staphylococcus aureus, MRSA); 4 µg/mL (≈ 9.29 µM) in experiment [22] (Haemophilus influenzae); 8 µg/mL (≈ 18.6 µM) in experiment [12] (Streptococcus pyogenes); 4 µg/mL (≈ 9.29 µM) in [13] (Staphylococcus aureus). Moreover, the MIC is > 128 µg/mL in [14], 4 µg/mL (≈ 9.29 µM) in [17] (Cryptococcus neoformans), 2 µg/mL (≈ 4.65 µM) in experiment [20] (Bacillus cereus) and 8 µg/mL (≈ 18.6 µM) in experiment [21] (Enterococcus faecium).
With `CC1COc2c(N3CCN(C)CC3)c(F)cc3c(=O)c(C(=O)O)cn1c23` (stereo not drawn) [Ofloxacin, ofloxacin, reference compound], the MIC is 0.03 µg/mL (≈ 0.083 µM) in experiment [2] (Escherichia coli (25922), read-out: MIC); 0.125 µg/mL (≈ 0.346 µM) in experiment [3] (Corynebacterium); 0.25 µg/mL (≈ 0.692 µM) in experiment [4] (Staphylococcus epidermidis (12228), read-out: MIC); 1 to 2 µg/mL (≈ 2.77 to 5.53 µM) in experiment [5] (Streptococcus pneumoniae (49619), read-out: MIC); 1 µg/mL (≈ 2.77 µM) in [23]; 0.125 µg/mL (≈ 0.346 µM) in experiment [6] (Bacillus subtilis). The MIC in experiment [8] (Enterococcus faecalis (29212), read-out: MIC) is 8 µg/mL (≈ 22.1 µM); in [9] (Staphylococcus aureus (33591), methicillin resistant (MRSA), read-out: MIC), 0.25 µg/mL (≈ 0.692 µM); in experiment [22] (Haemophilus influenzae (49247), read-out: MIC), 0.25 µg/mL (≈ 0.692 µM); in experiment [12] (Streptococcus pyogenes (49339), Table Ia: Streptococcus Group A(49339), read-out: MIC) it was 1 µg/mL (≈ 2.77 µM); in experiment [13] (Staphylococcus aureus) it was 0.125 µg/mL (≈ 0.346 µM); in experiment [14] it was > 128 µg/mL. Moreover, the MIC in [15] (read-out: MIC) came to 0.5 µg/mL (≈ 1.38 µM); in experiment [16] (Cutibacterium acnes, read-out: MIC), 0.25 µg/mL (≈ 0.692 µM); in [18] (Clostridium perfringens), 0.25 µg/mL (≈ 0.692 µM); in [19] (read-out: MIC), 1 µg/mL (≈ 2.77 µM); in experiment [20] (Bacillus cereus), 0.125 µg/mL (≈ 0.346 µM); in experiment [21] (Enterococcus faecium (51559), vancomycin resistant, read-out: MIC) it was 8 µg/mL (≈ 22.1 µM).
For `CN(C)CCCNC(=O)CCNC(=O)c1cc(NC(=O)c2cc(NC(=O)c3nsc(Cl)c3Cl)cn2C)cn1C` [V-cc], the dsDNA binding entry in experiment [24] is on record as “good binder for dsDNA”. Also, the Anti-pathogenic properties entry in [25] is recorded as “significant anti-pathogenic properties”.
As to `CCN(CC)CCNC(=O)CCNC(=O)c1cc(NC(=O)c2cc(NC(=O)c3nsc(NCCN(CC)CC)c3Cl)cn2C)cn1C` [V-r], the MIC is >128 µg/mL in experiment [2] (Escherichia coli (25922)); 16 µg/mL (≈ 23.1 µM) in [5] (setting [30]); 2 µg/mL (≈ 2.89 µM) in experiment [7] (Candida parapsilosis (10232)); 16 µg/mL (≈ 23.1 µM) in experiment [8] (Enterococcus faecalis (29212)); >128 µg/mL in experiment [10]; >128 µg/mL in [22] (Haemophilus influenzae (49247)). Moreover, the MIC was >128 µg/mL in [11], >128 µg/mL in experiment [13] (Staphylococcus aureus (29213)), 16 µg/mL (≈ 23.1 µM) in [17] (setting [31]) and >128 µg/mL in [20] (Bacillus cereus (11778)).
On to `CN(C)CCCNC(=O)CCNC(=O)c1cc(NC(=O)c2cc(NC(=O)c3cc(NC(=O)c4nc(NC(=O)CCCNC(=O)c5cc(NC(=O)c6cc(NC(=O)c7nsc(Cl)c7Cl)cn6C)cn5C)cn4C)cn3C)cn2C)cn1C` [VI-c], for which the “Binding Constant, sequence AGTACT” value in [26] was 2e+08 M⁻¹. The “Sequence preference of binding” value in experiment [24] was “bind ATTACT, and AATACT preferentially to ACTACT and AGTACT”. Moreover, the “Binding Constant, sequence AATACT” value in [27] was 1e+09 M⁻¹. Besides, the “Binding Constant, sequence ACTACT” value in experiment [28] was determined as 1e+08 M⁻¹. In addition, in experiment [29], the “Binding Constant, sequence ATTACT” value came to 1e+10 M⁻¹.
